# Measurements as given in ChEMBL document CHEMBL2321732, “Synthesis and evaluation of novel 2,3,5-triaryl-4H,2,3,3a,5,6,6a-hexahydropyrrolo[3,4-d]isoxazole-4,6-diones for advanced glycation end product formation inhibitory activity” (Bioorg Med Chem Lett, 2013).
# Assay: Antiglycation activity assessed as inhibition of glucose-mediated advanced glycation end product formation after 30 hrs by fluorescence spectrophotometry in presence of bovine serum albumin
# Assay type: physicochemical
row,SMILES,IC50
1,Cc1ccc(N2C(=O)[C@@H]3[C@@H](ON(c4ccccc4)[C@H]3c3ccccc3O)C2=O)cc1,75 µM
2,O=C(O)c1ccc(N2C(=O)[C@@H]3[C@@H](ON(c4ccccc4)[C@H]3c3ccccc3O)C2=O)cc1 (relative stereo),63.9 µM
3,O=C(O)c1ccc(N2C(=O)[C@@H]3[C@@H](ON(c4ccccc4)[C@H]3c3ccccc3Cl)C2=O)cc1 (relative stereo),127 µM
4,O=C1[C@H]2[C@@H](c3ccccc3Cl)N(c3ccccc3)O[C@H]2C(=O)N1c1ccccc1 (relative stereo),7.4 µM
5,O=C1[C@@H]2[C@@H](ON(c3ccccc3)[C@H]2c2ccccc2Cl)C(=O)N1c1ccccc1 (relative stereo),30.9 µM
6,Cc1ccc(N2C(=O)[C@H]3[C@@H](c4ccccc4Cl)N(c4ccccc4)O[C@H]3C2=O)cc1 (relative stereo),7.18 µM
7,Cc1ccc(N2C(=O)[C@@H]3[C@@H](ON(c4ccccc4)[C@H]3c3ccccc3Cl)C2=O)cc1 (relative stereo),23.9 µM
8,COc1ccc(N2C(=O)[C@H]3[C@@H](c4ccccc4Cl)N(c4ccccc4)O[C@H]3C2=O)cc1 (relative stereo),8.63 µM
9,COc1ccc(N2C(=O)[C@@H]3[C@@H](ON(c4ccccc4)[C@H]3c3ccccc3Cl)C2=O)cc1 (relative stereo),24.2 µM
10,O=C(O)c1ccc(N2C(=O)[C@H]3[C@@H](c4ccccc4Cl)N(c4ccccc4)O[C@H]3C2=O)cc1 (relative stereo),33 µM
11,O=C1[C@H]2[C@@H](c3ccccc3O)N(c3ccccc3)O[C@H]2C(=O)N1c1ccccc1 (relative stereo),25.9 µM
12,O=C1[C@@H]2[C@@H](ON(c3ccccc3)[C@H]2c2ccccc2O)C(=O)N1c1ccccc1 (relative stereo),64.8 µM
13,Cc1ccc(N2C(=O)[C@H]3[C@@H](c4ccccc4O)N(c4ccccc4)O[C@H]3C2=O)cc1 (relative stereo),18.8 µM
14,COc1ccc(N2C(=O)[C@H]3[C@@H](c4ccccc4O)N(c4ccccc4)O[C@H]3C2=O)cc1 (relative stereo),26.6 µM
15,COc1ccc(N2C(=O)[C@@H]3[C@@H](ON(c4ccccc4)[C@H]3c3ccccc3O)C2=O)cc1 (relative stereo),90.1 µM
16,O=C(O)c1ccc(N2C(=O)[C@H]3[C@@H](c4ccccc4O)N(c4ccccc4)O[C@H]3C2=O)cc1 (relative stereo),24.4 µM
17,N=C(N)NN [PIMAGEDINE],40.5 µM
